Laboratory results from ChEMBL document CHEMBL5365512, “Hetero-tricyclic Compounds as KRAS Inhibitors for Treating Cancer” (ACS Med Chem Lett, 2023).

Experiments:
GTPase KRas [1] = target: GTPase KRas (Homo sapiens, UniProt P01116, G12V); assay: Inhibition of KRAS G12V mutant (unknown origin) assessed as inhibition of SOS1 mediated nucleotide exchange of bodipy-GDP for GppNHp incubated for 3 hrs by fluorescence based analysis
GTPase KRas [2] = target: T1, GTPase KRas (Homo sapiens, UniProt P01116, G12D); assay: Inhibition of KRAS G12D mutant in human HPAF-II cells assessed as reduction in ERK phosphorylation by Western blot analysis; format: cell-based
T1 sequence (P01116 whole entry G12D): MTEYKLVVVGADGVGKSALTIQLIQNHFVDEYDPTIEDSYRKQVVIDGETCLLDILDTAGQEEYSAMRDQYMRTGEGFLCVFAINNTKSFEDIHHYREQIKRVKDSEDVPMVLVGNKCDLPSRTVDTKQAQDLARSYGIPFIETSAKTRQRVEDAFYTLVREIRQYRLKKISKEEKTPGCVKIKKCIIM

GTPase KRas [3] = target: T1, GTPase KRas; assay: Inhibition of KRAS G12D mutant (unknown origin) assessed as inhibition of SOS1 mediated nucleotide exchange of bodipy-GDP for GppNHp incubated for 4 hrs by fluorescence based analysis

Sequence of GTPase KRas (Homo sapiens, UniProt P01116, G12V) (P01116 whole entry G12V): as the sequence (P01116 whole entry G12D) above, with D12V counted along it

| IC50 (GTPase KRas [1]) [nM] | IC50 (GTPase KRas [2]) [nM] | IC50 (GTPase KRas [3]) [nM] | Structure (SMILES) |
| --- | --- | --- | --- |
| ≤ 100 | ≤ 100 | ≤ 100 | Cc1cc2c(nc(O[C@@H](C)[C@H]3CCCN3C)c3c(=O)ccn([C@@H]4[C@@H]5CN[C@H]4C5)c32)c(F)c1-c1cccc2c1C(C#N)CCC2 (some centres not stated) |
| ≤ 100 |  | ≤ 100 | C[C@H](Oc1nc2c(F)c(-c3cccc(Cl)c3Cl)c(CCC#N)cc2c2c1c(=O)c(N1CCCC1=O)cn2[C@@H]1[C@@H]2CN[C@H]1C2)[C@H]1CCCN1C |
| ≤ 100 | ≤ 100 | ≤ 100 | C[C@@H](Oc1nc2c(F)c(-c3cc(O)cc4ccccc34)c(CCC#N)cc2c2c1CCCN2C1C2CNC1C2)[C@H]1CCCN1C (some centres not stated) |

The remaining lines, values behind:

| Structure (SMILES) | IC50 (GTPase KRas [1]) [nM] | IC50 (GTPase KRas [2]) [nM] | IC50 (GTPase KRas [3]) [nM] |
| --- | --- | --- | --- |
| C[C@H](Oc1nc2c(F)c(-c3cc(O)cc4ccc(F)cc34)c(CCC#N)cc2c2c1NC(=O)CN2C1C2CNC1C2)[C@@H]1CCCN1C (some centres not stated) | ≤ 100 | ≤ 100 | ≤ 100 |
| C[C@H](Oc1nc2c(F)c(-c3c[nH]c4ccccc34)c(CCC#N)cc2c2c1NC(=O)CN2C1C2CNC1C2)[C@@H]1CCCN1C (some centres not stated) | ≤ 100 | ≤ 100 | ≤ 100 |
| C[C@H](Oc1nc2c(F)c(-c3cccc4ccc(F)cc34)c(CCC#N)cc2c2c1NC(=O)CN2C1C2CNC1C2)[C@@H]1CCCN1C (some centres not stated) | ≤ 100 | ≤ 100 | ≤ 100 |
